Like-named read-outs stand apart in the source and are kept apart here.
Tests used:
[1] = target: T1, urate transporter 1 (URAT1/SLC22A12) (Homo sapiens, UniProt Q96S37)
T1 sequence (Q96S37 1-553): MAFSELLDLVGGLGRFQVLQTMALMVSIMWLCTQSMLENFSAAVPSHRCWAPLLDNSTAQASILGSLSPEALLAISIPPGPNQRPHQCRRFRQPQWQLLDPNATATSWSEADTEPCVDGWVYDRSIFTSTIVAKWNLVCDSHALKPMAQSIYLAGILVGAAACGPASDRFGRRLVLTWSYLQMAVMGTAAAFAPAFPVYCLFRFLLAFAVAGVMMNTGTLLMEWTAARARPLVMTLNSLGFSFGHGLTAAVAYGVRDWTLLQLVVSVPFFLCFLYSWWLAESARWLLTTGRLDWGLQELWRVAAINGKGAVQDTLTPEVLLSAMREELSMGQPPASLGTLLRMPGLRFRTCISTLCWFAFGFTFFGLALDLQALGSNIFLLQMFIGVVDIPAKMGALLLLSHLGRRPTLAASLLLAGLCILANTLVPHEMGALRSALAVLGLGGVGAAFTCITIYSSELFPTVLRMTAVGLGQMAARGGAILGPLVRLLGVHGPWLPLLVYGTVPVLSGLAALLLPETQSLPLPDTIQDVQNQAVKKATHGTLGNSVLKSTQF

[2] = target: T1, urate transporter 1 (URAT1/SLC22A12); assay: [[…]-14C]-urate uptake inhibition in URAT1-expressing […] cells; assay type: cell-based; design: EGFP-tagged URAT1 wild type (pEGFP-C1)

SMILES | IC50 [2] [µM] | also measured
CCc1oc2ccccc2c1C(=O)c1cc(Br)c(O)c(Br)c1 [benzbromarone] |  | % inhibition at 10 μM [1]: 96
COc1ccc([C@@H]2CC(=O)c3c(O)cc(O)cc3O2)cc1O [hesperetin] | 25.7 | 
O=C1C[C@@H](c2ccc(O)cc2)Oc2cc(O)cc(O)c21 [naringenin] | 16.1 | 
COc1ccc(-c2cc(=O)c3c(OC)c(OC)c(OC)c(OC)c3o2)cc1OC [nobiletin] |  | IC50 ([2]; read-out: IC50): 17.6 µM

Source: PMC7002704, “Inhibitory effect of Citrus flavonoids on the in vitro transport activity of human urate transporter 1 (URAT1/SLC22A12), a renal re-absorber of urate” (NPJ Science of Food, 2020)
